Test results from ChEMBL document CHEMBL1146814, “Amidine derived 1,3-diazabuta-1,3-dienes as potential antibacterial and antifungal agents” (2004).
The source made the active and inactive calls. The calls are words filed in the database; no cut-off is given here.

Experiments:
Escherichia coli [1] = assay: Antibacterial activity against Escherichia coli MTCC 42 measured through zone of inhibition; 21-25 mm; type: functional
Staphylococcus aureus [2] = assay: Antibacterial activity against Staphylococcus aureus MTCC 1430 measured through zone of inhibition; 21-25 mm; type: functional
Bacillus cereus [3] = assay: Antibacterial activity against Bacillus cereus MTCC 1272 measured through zone of inhibition; 16-20 mm; type: functional
Bacillus subtilis [4] = assay: Antibacterial activity against Bacillus subtilis MTCC 121 measured through zone of inhibition; 21-25 mm; type: functional
Pseudomonas aeruginosa [5] = assay: Antibacterial activity against Pseudomonas aeruginosa MTCC 1034. measured through zone of inhibition; 16-20 mm; type: functional
Bacillus subtilis [6] = assay: Antibacterial activity against Bacillus subtilis MTCC 121 measured through zone of inhibition; 16-20 mm; type: functional
Aspergillus niger [7] = assay: Antifungal activity against Aspergillus niger MTCC 404 measured through zone of inhibition; Inactive; type: functional, organism-based
Candida albicans [8] = assay: Antifungal activity against Candida albicans MTCC 183 measured through zone of inhibition; Inactive; type: functional, organism-based
Aspergillus niger [9] = assay: Antifungal activity against Aspergillus niger MTCC 404 measured through zone of inhibition; 11-15 mm; type: functional
Staphylococcus aureus [10] = assay: Antibacterial activity against Staphylococcus aureus MTCC 1430 measured through zone of inhibition; 11-15 mm; type: functional
Candida albicans [11] = assay: Antifungal activity against Candida albicans MTCC 183 measured through zone of inhibition; 11-15 mm; type: functional
Bacillus cereus [12] = assay: Antibacterial activity against Bacillus cereus MTCC 1272 measured through zone of inhibition; 21-25 mm; type: functional
Aspergillus niger [13] = assay: Antifungal activity against Aspergillus niger MTCC 404 measured through zone of inhibition; inactive; type: functional, organism-based
Staphylococcus aureus [14] = assay: Antibacterial activity against Staphylococcus aureus MTCC 1430 measured through zone of inhibition; Inactive; type: functional, organism-based
Escherichia coli [15] = assay: Antibacterial activity against Escherichia coli MTCC 42 measured through zone of inhibition; Inactive; type: functional, organism-based
Pseudomonas aeruginosa [16] = assay: Antibacterial activity against Pseudomonas aeruginosa MTCC 1034. measured through zone of inhibition; Inactive; type: functional, organism-based
Bacillus cereus [17] = assay: Antibacterial activity against Bacillus cereus MTCC 1272 measured through zone of inhibition; Inactive; type: functional, organism-based
Bacillus subtilis [18] = assay: Antibacterial activity against Bacillus subtilis MTCC 121 measured through zone of inhibition; Inactive; type: functional, organism-based
Candida albicans [19] = assay: Antifungal activity against Candida albicans MTCC 183 measured through zone of inhibition; 16-20 mm; type: functional
Pseudomonas aeruginosa [20] = assay: Antibacterial activity against Pseudomonas aeruginosa MTCC 1034. measured through zone of inhibition; 21-25 mm; type: functional
Staphylococcus aureus [21] = assay: Antibacterial activity against Staphylococcus aureus MTCC 1430 measured through zone of inhibition; 16-20 mm; type: functional
Candida albicans [22] = assay: Antifungal activity against Candida albicans MTCC 183 measured through zone of inhibition; inactive; type: functional, organism-based
Bacillus cereus [23] = assay: Antibacterial activity against Bacillus cereus MTCC 1272 measured through zone of inhibition; 11-15 mm; type: functional

SMILES: O=C(O)c1cn(C2CC2)c2cc(N3CCNCC3)c(F)cc2c1=O [CIPROFLOXACIN]
- Zone of inhibition (Escherichia coli [1]): 21 mm
- Zone of inhibition (Staphylococcus aureus [2]): 21 mm
- Zone of inhibition (Bacillus cereus [3]): 16 mm
- Zone of inhibition (Bacillus subtilis [4]): 21 mm
- Zone of inhibition (Pseudomonas aeruginosa [5]): 16 mm

SMILES: CS/C(=N\C(=N\c1ccc(C)cc1)c1ccccc1)N1CCCCC1
- Zone of inhibition (Bacillus subtilis [6]): 16 mm
- Zone of inhibition (Aspergillus niger [7]): inactive
- Zone of inhibition (Escherichia coli [1]): 21 mm
- Zone of inhibition (Staphylococcus aureus [2]): 21 mm
- Zone of inhibition (Candida albicans [8]): inactive
- Zone of inhibition (Bacillus cereus [3]): 16 mm
- Zone of inhibition (Pseudomonas aeruginosa [5]): 16 mm

SMILES: CCS/C(=N\C(=N\c1ccc(C)cc1)c1ccccc1)N1CCCCC1
- Zone of inhibition (Aspergillus niger [9]): 11 mm
- Zone of inhibition (Staphylococcus aureus [10]): 11 mm
- Zone of inhibition (Escherichia coli [1]): 21 mm
- Zone of inhibition (Candida albicans [8]): inactive
- Zone of inhibition (Bacillus cereus [3]): 16 mm
- Zone of inhibition (Bacillus subtilis [4]): 21 mm
- Zone of inhibition (Pseudomonas aeruginosa [5]): 16 mm

SMILES: CCS/C(=N\C(=N\c1ccccc1)c1ccccc1)N1CCCCC1
- Zone of inhibition (Bacillus subtilis [6]): 16 mm
- Zone of inhibition (Candida albicans [11]): 11 mm
- Zone of inhibition (Escherichia coli [1]): 21 mm
- Zone of inhibition (Bacillus cereus [12]): 21 mm
- Zone of inhibition (Staphylococcus aureus [2]): 21 mm
- Zone of inhibition (Aspergillus niger [13]): inactive
- Zone of inhibition (Pseudomonas aeruginosa [5]): 16 mm

SMILES: C[S+](C)[O-]
- Zone of inhibition (Aspergillus niger [7]): inactive
- Zone of inhibition (Staphylococcus aureus [14]): inactive
- Zone of inhibition (Escherichia coli [15]): inactive
- Zone of inhibition (Pseudomonas aeruginosa [16]): inactive
- Zone of inhibition (Candida albicans [8]): inactive
- Zone of inhibition (Bacillus cereus [17]): inactive
- Zone of inhibition (Bacillus subtilis [18]): inactive

SMILES: CCCCS/C(=N\C(=N\c1ccc(C)cc1)c1ccccc1)N1CCCCC1
- Zone of inhibition (Bacillus subtilis [6]): 16 mm
- Zone of inhibition (Candida albicans [19]): 16 mm
- Zone of inhibition (Aspergillus niger [9]): 11 mm
- Zone of inhibition (Escherichia coli [1]): 21 mm
- Zone of inhibition (Staphylococcus aureus [2]): 21 mm
- Zone of inhibition (Bacillus cereus [3]): 16 mm
- Zone of inhibition (Pseudomonas aeruginosa [20]): 21 mm

SMILES: CS/C(=N\C(=N\c1ccccc1)c1ccccc1)N1CCCCC1
- Zone of inhibition (Bacillus subtilis [6]): 16 mm
- Zone of inhibition (Staphylococcus aureus [21]): 16 mm
- Zone of inhibition (Escherichia coli [1]): 25 mm
- Zone of inhibition (Candida albicans [22]): inactive
- Zone of inhibition (Bacillus cereus [3]): 16 mm
- Zone of inhibition (Aspergillus niger [13]): inactive
- Zone of inhibition (Pseudomonas aeruginosa [5]): 16 mm

SMILES: CS/C(=N\C(=N\c1ccc(Cl)cc1)c1ccccc1)N1CCCCC1
- Zone of inhibition (Bacillus subtilis [6]): 16 mm
- Zone of inhibition (Staphylococcus aureus [21]): 16 mm
- Zone of inhibition (Aspergillus niger [9]): 11 mm
- Zone of inhibition (Candida albicans [11]): 11 mm
- Zone of inhibition (Escherichia coli [1]): 21 mm
- Zone of inhibition (Bacillus cereus [23]): 11 mm
- Zone of inhibition (Pseudomonas aeruginosa [20]): 21 mm
